Test results as given in patent US20250195528A1, “DOSE REGIMEN OF VICASINABIN” (Hoffmann-La Roche Inc., priority 2022, published 2025).

Key:
[1] = tested on: laser-induced neovascularization; format: in vivo, rat
Method: Pharmacological studies were performed in vitro and in vivo to investigate the potency, selectivity and activity of RO6868847. Pharmacological effects were determined in vivo in two different diabetic animal models which include the streptozotocin (STZ)-induced rat Type 1 diabetes and genetic Type 2 diabetes mouse models as well as in two acute models with acute inflammatory stimulus (LPS-injections) or laser injury (CNV). Additional in vitro pharmacology studies were performed to explore the pharmacological effect of RO6868847 and the suitability of the assays as biomarkers of target engagement and pharmacodynamic effect (PD) in human whole blood obtained from either healthy volunteers or diabetic patients.
The diversity of the tested models (including acute challenge versus disease-modifying models) and the absence of a recommended nonclinical DME/DR model with proven clinical translatability presents a challenge for the estimation of pharmacologically active exposure in humans.
Exposure was derived from satellite animals or extrapolated from previous PK or PD studies in the same species.
(§1) Based on this integrated assessment, the pharmacologically active exposure range observed in rats spans 2 logs, with an upper bound (unbound AUC0-24 [S-epimer]=546 ng·hr/mL) corresponding to the full effect at 10 mg/kg in a rat STZ-induced Type 1 diabetes model and the lower bound (unbound AUC0-24 [S-epimer]=2.8 ng·hr/mL) corresponding to 50% decrease in disease marker (hypoerfluorescence area) in a laser-induced NV rat model.

human CB2 [2] = target: T1, human CB2 (Homo sapiens, UniProt P34972); test: Radioligand binding to CB2, CHO cells expressing recombinant CB2
T1 construct: expressed in transfected cells; host or cells: CHO cells

[3] = Stability of drug substance; format: physicochemical
Method: For Phase I, film-coated tablets for oral administration containing 0.05, 0.75, 10, or 100 mg of RO6868847 drug substance were developed for clinical use. Three placebo film-coated tablets were formulated to match the active film-coated tablets in size and in appearance: one size to match the active 0.05 and 0.75 mg film-coated tablets and one size each to match the active 10 and 100 mg film-coated tablets.

[4] = Study BP40387 Part 2 (FE) food effect on pharmacokinetics; format: in vivo, human; conditions: for Tmax: both sexes, human, plasma, oral, 100 mg single dose, read-out: Median Tmax
Text: In Part 2 (FE) of Study BP40387, consistent with delayed gastric emptying due to an extended meal, the time to reach peak plasma concentration (Tmax) was slightly longer following dosing after a high fat, high calorie breakfast. […] Single Dose Urine Pharmacokinetics

CB2 = target: T2, CB2 (Rattus norvegicus, UniProt Q9QZN9); test: In vitro rat Ki; format: binding
T2 sequence (Q9QZN9 1-360): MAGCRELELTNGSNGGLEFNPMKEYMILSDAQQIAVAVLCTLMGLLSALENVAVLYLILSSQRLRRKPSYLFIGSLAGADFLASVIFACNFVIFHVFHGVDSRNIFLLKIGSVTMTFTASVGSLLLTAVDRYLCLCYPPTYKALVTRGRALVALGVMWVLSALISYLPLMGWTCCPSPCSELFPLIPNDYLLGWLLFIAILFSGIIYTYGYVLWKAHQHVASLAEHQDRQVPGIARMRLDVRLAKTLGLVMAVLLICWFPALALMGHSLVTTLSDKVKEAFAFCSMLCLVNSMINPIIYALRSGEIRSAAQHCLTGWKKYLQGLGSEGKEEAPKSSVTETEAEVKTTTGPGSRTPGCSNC
Text: FIG. 10 illustrates Disease Markers versus Free Exposure of the Active S-Epimer RO6868847 in Several Animal Models. […] Disease markers (hyperfluorescence area in mm^2, OD retina-plasma fluorescein ratio, number of leukocytes per mm^2 or total length of processes in mm) as a percent of the control value (100% represents the vehicle-treated diabetic control and 0% for vehicle-treated healthy control) in different in vivo PD models as a function of the free AUC0-24 of the active S-epimer RO6868847.
as §1

[5] = tested on: 131 targets along with 57 CNS- and abuse potential-specific targets; test: In vitro pharmacology profile on target panels; conditions: 30 μM
Method: The in vitro pharmacology profile of RO6868847 was evaluated at concentration of 30 μM on panels including 131 targets along with 57 CNS- and abuse potential-specific targets.

clinical = conditions: both, human, plasma, oral
Method: Study BP40387 was a Phase I study that was conducted in healthy male and female participants, and included 5 parts. Part 1 (SAD) consisted of an adaptive, single-ascending-dose, investigator/participant-blind, randomized, placebo-controlled, parallel study to investigate the safety, tolerability, and pharmacokinetics of RO6868847. Part 2 (FE), was designed as an open-label, randomized, two-period crossover, single dose investigation of the effect of food on the pharmacokinetics of RO6868847. Part 3 (MAD), was an adaptive, multiple-ascending-dose, investigator/participant-blind, randomized, placebo-controlled, parallel study to investigate the safety, tolerability, and pharmacokinetics of RO6868847 administered once-daily for 14 days. Part 4 (DDI-CYP Induction), was a non-randomized, open-label, fixed-sequence, two-period study to explore RO6868847-mediated CYP induction at 300 mg administered once-daily for 14 days, using midazolam, repaglinide, and bupropion as probe substrates for CYP3A, CYP2C8, and CYP2B6, respectively. […] Overall, in Part 1 (SAD), a total of 33 healthy participants received single oral doses of RO6868847 ranging between 0.75 mg and 300 mg, and 12 participants received placebo under fasting conditions. In Part 2 (FE), 8 participants received a single oral dose of 100 mg RO6868847 once after an overnight fast of at least 10 hours and once within 30 minutes after starting a high-calorie, high-fat breakfast. In Part 3 (MAD), a total of 30 participants received multiple oral doses of 6 mg to 300 mg RO6868847 QD for 14 days, and 10 participants received placebo.

human CB1 [6] = target: T3, human CB1 (Homo sapiens, UniProt P21554); test: Human CB1 binding assay
human CB2 [7] = target: T1, human CB2; test: Radioligand binding to CB2, U698M cells expressing endogenous CB2
human CB1 [8] = target: T3, human CB1; test: Human CB1 cAMP assay; format: cell-based
Text: Inhibition of cAMP accumulation in Chinese hamster ovary cells stably expressing recombinant CB2 was used to determine the functional potency of RO6868847 for different CB2 species and the selectivity over the closely related CB1.
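Throughout, for AUC: phase I trial BP40387 in healthy male and female volunteers.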
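Throughout, for Cmax: phase I trial BP40387 in healthy male and female volunteers.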

T1 sequence (P34972 whole entry): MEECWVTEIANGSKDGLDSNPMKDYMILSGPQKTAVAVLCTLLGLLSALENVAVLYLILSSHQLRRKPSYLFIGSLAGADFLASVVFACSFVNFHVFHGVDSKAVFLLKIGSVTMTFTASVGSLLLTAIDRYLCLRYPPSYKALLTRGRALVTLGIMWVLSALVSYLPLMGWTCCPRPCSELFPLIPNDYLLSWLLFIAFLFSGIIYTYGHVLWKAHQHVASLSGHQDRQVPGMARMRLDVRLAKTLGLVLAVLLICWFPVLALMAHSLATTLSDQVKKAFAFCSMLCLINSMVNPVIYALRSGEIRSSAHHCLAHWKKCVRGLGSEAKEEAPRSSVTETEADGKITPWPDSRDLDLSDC
T3 sequence (P21554 whole entry): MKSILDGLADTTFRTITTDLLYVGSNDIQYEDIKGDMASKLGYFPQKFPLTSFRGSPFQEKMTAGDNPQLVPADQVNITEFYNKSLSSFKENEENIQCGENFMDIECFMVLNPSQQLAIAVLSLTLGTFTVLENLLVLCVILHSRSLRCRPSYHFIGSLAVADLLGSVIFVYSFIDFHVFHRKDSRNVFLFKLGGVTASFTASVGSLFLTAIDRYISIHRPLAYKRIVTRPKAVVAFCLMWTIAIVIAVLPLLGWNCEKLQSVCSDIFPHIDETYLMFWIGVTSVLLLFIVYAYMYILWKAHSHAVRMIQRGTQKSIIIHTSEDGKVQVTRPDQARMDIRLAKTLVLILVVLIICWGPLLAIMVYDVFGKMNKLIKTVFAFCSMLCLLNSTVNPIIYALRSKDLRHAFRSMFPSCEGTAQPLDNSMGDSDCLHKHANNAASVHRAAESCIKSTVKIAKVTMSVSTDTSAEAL

Cn1nnnc1Cn1nnc2c(N3CC[C@H](O)C3)nc(C(C)(C)C)nc21 [RO6868847, (3S)-1-[5-tert-butyl-3-[(1-methyltetrazol-5-yl)methyl]triazolo[4,5-d]pyrimidin-7-yl]pyrrolidin-3-ol]
decrease in disease marker (hyperfluorescence area) ([1]; rat, at unbound AUC0-24 2.8 ng·hr/mL): 50%
unbound AUC0-24 [S-epimer], lower bound of pharmacologically active exposure ([1]; rat, in vivo): 2.8 ng·hr/mL
retinal hyperfluorescence ([1]; rodent laser injury model): reduction of retinal hyperfluorescence
IC50 (human CB2 [2]): 117 ± 26.3 nM
Ki (human CB2 [2]): 51.3 nM
stability to temperature stress [3]: fairly stable
stability to light ([3]; solid state and solution): stable to light
effect of food on AUCInf ([4]; 100 mg, fed vs fasted): increased only marginally
effect of food on Cmax ([4]; 100 mg, fed vs fasted): remained unaffected by food
Tmax ([4]; 100 mg, fasted state): 3 h
Tmax ([4]; 100 mg, fed state (high fat, high calorie breakfast)): 4 h
effect of food on the pharmacokinetics ([4]; overall): no relevant effect
Ki (CB2; rat): 33.3 nM
unbound AUC0-24 at in vitro rat Ki as share of upper bound of active exposure (CB2; rat): 52%
free AUC0-24 extrapolated from rat Ki (CB2; rat Ki x 24): 286 ng·h/mL
Ki (CB2; rat, converted from nM): 33.5 nM
selectivity for CB2 in panels [5]: high selectivity for CB2 in all the panels
half-life (clinical): 8.27 to 39 h
AUC (clinical; 6 mg): 870 ng·h/mL
Cmax (clinical; 6 mg): 97.9 ng/mL
half-life (clinical; 6 mg): 8.27 h
AUC (clinical; 20 mg): 2610 ng·h/mL
Cmax (clinical; 20 mg): 289 ng/mL
Tmax (clinical; 20 mg): 1.06 h
half-life (clinical; 20 mg): 15 h
AUC (clinical; 60 mg): 8480 ng·h/mL
Cmax (clinical; 60 mg): 899 ng/mL
Tmax (clinical; 60 mg): 2 h
half-life (clinical; 60 mg): 31.6 h
AUC (clinical; 200 mg): 21400 ng·h/mL
Cmax (clinical; 200 mg): 2380 ng/mL
Tmax (clinical; 200 mg): 3 h
AUC (clinical; 300 mg): 27100 ng·h/mL
Cmax (clinical; 300 mg): 2970 ng/mL
Tmax (clinical; 300 mg): 2.5 h
half-life (clinical; 300 mg): 39 h
Ki (human CB1 [6]): > 10000 nM
CB1/CB2 Ratio (binding selectivity) (human CB1 [6]; CB1 Ki over CB2 Ki): >195 fold
affinity for human CB1 (human CB1 [6]; highest concentration of 10 μM): no affinity
IC50 (human CB2 [7]): 92.2 ± 13.1 nM
Ki (human CB2 [7]): 62.8 nM
EC50 (human CB1 [8]): > 10000 nM
IC50 (human CB1 [8]): > 10000 nM
CB1/CB2 Ratio (functional selectivity) (human CB1 [8]; CB1 EC50 over CB2 EC50): >3600 fold
receptor activation or inhibition (human CB1 [8]; highest concentration of 10 μM): no receptor activation or inhibition
